How the values were obtained:
[1] = target: Beta-3 adrenergic receptor (Homo sapiens, UniProt P13945); experiment: DRUGMATRIX: Adrenergic beta3 radioligand binding (ligand: [125I] Cyanopindolol); assay type: cell membranes, HEK293, Membrane; conditions: hek293; Not Active = under 50% inhibition at 10 µM
[2] = target: T1, Vasoactive intestinal polypeptide receptor 1 (Homo sapiens, UniProt P32241); assay type: cell membranes, Membrane; conditions: ht-29; further: in other assays of this panel Not Active means under 50% inhibition at 10 µM
T1 sequence (P32241 whole entry): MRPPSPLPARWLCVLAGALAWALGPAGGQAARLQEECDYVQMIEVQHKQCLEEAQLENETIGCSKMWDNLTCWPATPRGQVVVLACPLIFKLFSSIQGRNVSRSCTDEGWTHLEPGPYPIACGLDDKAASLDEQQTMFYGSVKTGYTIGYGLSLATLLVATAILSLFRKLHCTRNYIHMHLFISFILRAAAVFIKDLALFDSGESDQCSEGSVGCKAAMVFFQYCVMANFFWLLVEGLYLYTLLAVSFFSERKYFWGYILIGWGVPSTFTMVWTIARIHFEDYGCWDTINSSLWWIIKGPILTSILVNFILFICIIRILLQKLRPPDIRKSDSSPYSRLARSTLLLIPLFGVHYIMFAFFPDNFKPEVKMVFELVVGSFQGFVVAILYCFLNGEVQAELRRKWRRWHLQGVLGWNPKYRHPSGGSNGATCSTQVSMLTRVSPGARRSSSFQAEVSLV

[3] = target: T2, C-C chemokine receptor type 4 (Homo sapiens, UniProt P51679); assay type: cell membranes, Membrane; conditions: chem-1; further: in other assays of this panel Not Active means under 50% inhibition at 10 µM
T2 sequence (P51679 whole entry): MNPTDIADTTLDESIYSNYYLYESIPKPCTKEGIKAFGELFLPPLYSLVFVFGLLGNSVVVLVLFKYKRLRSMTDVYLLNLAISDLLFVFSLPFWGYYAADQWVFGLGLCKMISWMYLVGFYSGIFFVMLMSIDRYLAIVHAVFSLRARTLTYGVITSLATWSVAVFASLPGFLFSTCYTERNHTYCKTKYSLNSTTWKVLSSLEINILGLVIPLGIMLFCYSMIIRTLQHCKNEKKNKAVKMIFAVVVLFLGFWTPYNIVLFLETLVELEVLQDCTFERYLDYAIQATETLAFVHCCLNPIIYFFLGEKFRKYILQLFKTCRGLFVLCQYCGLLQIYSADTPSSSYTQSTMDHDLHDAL

[4] = target: T3, Cholecystokinin receptor type A (Homo sapiens, UniProt P32238); assay type: cell membranes, Membrane; conditions: 1321-n1; further: in other assays of this panel Not Active means under 50% inhibition at 10 µM
T3 sequence (P32238 whole entry): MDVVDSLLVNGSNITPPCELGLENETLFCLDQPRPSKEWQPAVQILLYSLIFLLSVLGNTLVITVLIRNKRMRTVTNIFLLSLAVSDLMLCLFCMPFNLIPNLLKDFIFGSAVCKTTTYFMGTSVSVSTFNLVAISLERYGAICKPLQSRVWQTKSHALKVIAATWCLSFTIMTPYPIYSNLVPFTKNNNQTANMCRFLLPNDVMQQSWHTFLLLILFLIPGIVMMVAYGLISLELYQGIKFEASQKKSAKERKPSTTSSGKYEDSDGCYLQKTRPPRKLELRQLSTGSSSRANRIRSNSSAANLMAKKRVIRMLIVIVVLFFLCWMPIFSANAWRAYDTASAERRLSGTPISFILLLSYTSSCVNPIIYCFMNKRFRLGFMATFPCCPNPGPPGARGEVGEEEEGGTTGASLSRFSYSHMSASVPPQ

D(4) dopamine receptor = target: T4, D(4) dopamine receptor (Homo sapiens, UniProt P21917); experiment: DRUGMATRIX: Dopamine D4.2 radioligand binding (ligand: [3H] Spiperone); assay type: cell membranes, CHO-K1, Membrane; conditions: cho-k1; Not Active = under 50% inhibition at 10 µM
T4 sequence (P21917 whole entry): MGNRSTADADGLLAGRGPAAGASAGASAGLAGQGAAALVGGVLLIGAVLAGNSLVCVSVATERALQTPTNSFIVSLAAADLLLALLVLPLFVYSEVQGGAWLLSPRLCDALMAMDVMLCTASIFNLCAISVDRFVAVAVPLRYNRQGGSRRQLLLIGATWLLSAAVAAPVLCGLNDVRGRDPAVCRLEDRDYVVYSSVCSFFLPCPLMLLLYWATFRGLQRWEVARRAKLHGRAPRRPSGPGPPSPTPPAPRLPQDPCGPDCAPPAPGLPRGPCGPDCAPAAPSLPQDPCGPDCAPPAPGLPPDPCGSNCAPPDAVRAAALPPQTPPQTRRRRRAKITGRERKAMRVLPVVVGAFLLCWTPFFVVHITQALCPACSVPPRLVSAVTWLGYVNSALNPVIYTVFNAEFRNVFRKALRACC

[5] = DRUGMATRIX: Interleukin IL-1 radioligand binding (ligand: [125I] interleukin 1beta); assay type: cell membranes, Membrane; conditions: nih3t3; Not Active = under 50% inhibition at 10 µM
[6] = DRUGMATRIX: Leukotriene, BLT (LTB4) radioligand binding (ligand: [3H]LTB4); assay type: cell membranes, Membrane; conditions: u-937; Not Active = under 50% inhibition at 10 µM
[7] = target: Delta-type opioid receptor (Homo sapiens, UniProt P41143); assay type: cell membranes, HEK293, Membrane; conditions: hek293; further: in other assays of this panel Not Active means under 50% inhibition at 10 µM
Chain of Delta-type opioid receptor (P41143 whole entry): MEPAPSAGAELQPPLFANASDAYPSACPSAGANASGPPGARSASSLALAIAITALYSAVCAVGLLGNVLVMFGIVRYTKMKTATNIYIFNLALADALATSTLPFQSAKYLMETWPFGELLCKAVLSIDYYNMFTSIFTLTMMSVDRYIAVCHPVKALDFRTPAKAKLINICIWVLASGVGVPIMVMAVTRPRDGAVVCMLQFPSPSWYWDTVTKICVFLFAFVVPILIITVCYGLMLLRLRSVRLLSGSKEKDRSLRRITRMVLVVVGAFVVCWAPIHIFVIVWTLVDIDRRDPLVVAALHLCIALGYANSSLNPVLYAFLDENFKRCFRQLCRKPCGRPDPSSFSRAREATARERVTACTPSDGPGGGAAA

Mu-type opioid receptor = Mu-type opioid receptor (Homo sapiens, UniProt P35372); experiment: DRUGMATRIX: Opiate mu (OP3, MOP) radioligand binding (ligand: [3H] Diprenorphine); assay type: cell membranes, CHO-K1, Membrane; conditions: cho-k1; Not Active = under 50% inhibition at 10 µM
Chain of Mu-type opioid receptor (P35372 whole entry): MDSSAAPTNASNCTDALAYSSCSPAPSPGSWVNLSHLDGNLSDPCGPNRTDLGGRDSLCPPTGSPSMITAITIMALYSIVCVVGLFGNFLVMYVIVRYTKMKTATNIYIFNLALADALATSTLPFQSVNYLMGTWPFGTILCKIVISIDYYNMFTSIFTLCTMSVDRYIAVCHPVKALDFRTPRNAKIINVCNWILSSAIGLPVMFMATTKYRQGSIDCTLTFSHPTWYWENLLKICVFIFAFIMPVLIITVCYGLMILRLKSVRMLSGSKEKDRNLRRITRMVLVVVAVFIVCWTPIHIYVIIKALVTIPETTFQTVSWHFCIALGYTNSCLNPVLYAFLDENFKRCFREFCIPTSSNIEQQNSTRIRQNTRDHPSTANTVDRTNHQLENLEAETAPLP

Acetylcholinesterase = Acetylcholinesterase (Homo sapiens, UniProt P22303); experiment: DRUGMATRIX: Acetylcholinesterase enzyme inhibition (substrate: acetylthiocholine); assay type: cell-based, HEK293; conditions: hek293; Not Active = under 50% inhibition at 10 µM
Chain of Acetylcholinesterase (P22303 whole entry): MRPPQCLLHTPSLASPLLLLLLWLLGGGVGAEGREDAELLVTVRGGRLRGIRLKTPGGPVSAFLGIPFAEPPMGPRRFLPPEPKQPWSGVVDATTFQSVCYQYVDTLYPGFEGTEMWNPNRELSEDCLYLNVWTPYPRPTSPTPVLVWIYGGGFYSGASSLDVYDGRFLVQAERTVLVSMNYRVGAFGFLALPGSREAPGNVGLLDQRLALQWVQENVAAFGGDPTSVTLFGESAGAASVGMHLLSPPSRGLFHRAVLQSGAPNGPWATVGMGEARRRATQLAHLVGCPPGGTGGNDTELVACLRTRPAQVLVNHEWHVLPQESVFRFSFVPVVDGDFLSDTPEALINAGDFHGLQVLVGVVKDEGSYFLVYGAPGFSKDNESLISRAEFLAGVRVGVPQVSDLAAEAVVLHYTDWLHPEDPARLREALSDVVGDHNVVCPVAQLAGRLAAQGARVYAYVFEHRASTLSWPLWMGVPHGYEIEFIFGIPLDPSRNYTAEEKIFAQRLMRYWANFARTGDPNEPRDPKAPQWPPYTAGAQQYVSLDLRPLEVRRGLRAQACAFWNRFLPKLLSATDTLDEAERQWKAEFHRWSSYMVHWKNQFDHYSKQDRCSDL

Adenosine receptor A3 = target: T5, Adenosine receptor A3 (Homo sapiens, UniProt P0DMS8); assay type: cell membranes, CHO-K1, Membrane; conditions: cho-k1
T5 sequence (P0DMS8 whole entry): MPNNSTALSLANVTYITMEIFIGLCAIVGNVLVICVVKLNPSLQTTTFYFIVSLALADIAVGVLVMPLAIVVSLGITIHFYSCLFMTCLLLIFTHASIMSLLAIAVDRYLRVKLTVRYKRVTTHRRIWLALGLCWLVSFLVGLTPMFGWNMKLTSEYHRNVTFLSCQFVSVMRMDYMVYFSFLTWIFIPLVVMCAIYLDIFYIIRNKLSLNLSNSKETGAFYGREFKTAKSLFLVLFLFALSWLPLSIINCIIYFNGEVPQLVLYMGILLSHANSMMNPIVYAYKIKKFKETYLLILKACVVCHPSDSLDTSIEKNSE

Cytochrome P450 2D6 = Cytochrome P450 2D6 (Homo sapiens, UniProt P10635); conditions: bti-tn-5b1-4; further: in other assays of this panel Not Active means under 50% inhibition at 10 µM
Chain of Cytochrome P450 2D6 (P10635 whole entry): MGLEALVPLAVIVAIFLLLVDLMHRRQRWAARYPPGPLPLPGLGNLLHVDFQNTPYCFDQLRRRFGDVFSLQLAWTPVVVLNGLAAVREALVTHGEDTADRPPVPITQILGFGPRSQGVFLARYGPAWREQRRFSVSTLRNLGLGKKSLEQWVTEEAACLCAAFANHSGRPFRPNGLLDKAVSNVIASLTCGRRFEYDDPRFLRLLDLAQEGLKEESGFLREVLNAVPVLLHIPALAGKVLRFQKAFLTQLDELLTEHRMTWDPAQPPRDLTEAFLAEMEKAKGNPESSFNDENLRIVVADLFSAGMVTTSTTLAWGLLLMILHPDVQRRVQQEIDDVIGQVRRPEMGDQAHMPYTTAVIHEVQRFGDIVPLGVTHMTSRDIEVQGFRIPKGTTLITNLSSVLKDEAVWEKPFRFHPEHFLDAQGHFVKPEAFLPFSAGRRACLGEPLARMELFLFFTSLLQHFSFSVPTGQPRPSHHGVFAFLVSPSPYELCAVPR

Estrogen receptor beta = Estrogen receptor beta (Homo sapiens, UniProt Q92731); conditions: sf9; further: in other assays of this panel Not Active means under 50% inhibition at 10 µM
Chain of Estrogen receptor beta (Q92731 whole entry): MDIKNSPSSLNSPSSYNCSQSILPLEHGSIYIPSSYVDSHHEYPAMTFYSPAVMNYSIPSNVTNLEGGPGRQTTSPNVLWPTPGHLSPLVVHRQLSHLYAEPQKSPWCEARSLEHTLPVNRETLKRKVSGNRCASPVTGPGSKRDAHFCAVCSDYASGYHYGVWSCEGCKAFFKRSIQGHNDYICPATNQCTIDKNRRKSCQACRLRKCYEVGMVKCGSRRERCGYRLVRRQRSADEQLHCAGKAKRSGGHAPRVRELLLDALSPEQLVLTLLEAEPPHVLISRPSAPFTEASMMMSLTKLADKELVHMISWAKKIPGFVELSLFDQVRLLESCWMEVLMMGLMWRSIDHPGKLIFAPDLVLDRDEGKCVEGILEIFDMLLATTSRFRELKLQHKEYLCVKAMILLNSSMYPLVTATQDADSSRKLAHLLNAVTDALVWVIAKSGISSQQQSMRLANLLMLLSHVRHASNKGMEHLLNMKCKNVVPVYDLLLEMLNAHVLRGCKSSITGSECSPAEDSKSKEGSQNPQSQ

Chain of Beta-3 adrenergic receptor (P13945 whole entry): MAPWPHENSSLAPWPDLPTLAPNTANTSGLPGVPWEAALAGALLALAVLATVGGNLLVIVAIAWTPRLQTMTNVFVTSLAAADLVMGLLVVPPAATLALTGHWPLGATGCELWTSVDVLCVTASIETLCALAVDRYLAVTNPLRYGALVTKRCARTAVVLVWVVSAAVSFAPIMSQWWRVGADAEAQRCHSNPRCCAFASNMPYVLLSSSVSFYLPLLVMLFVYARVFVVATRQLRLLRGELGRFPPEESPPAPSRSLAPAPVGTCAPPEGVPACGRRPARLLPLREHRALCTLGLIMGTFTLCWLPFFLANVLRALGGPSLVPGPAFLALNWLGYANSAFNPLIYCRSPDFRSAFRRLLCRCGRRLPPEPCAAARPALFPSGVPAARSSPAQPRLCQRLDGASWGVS

Cc1c(-c2ccccc2)oc2c(C(=O)OCCN3CCCCC3)cccc2c1=O [FLAVOXATE]
Not Active: IC50 [1] | IC50 [2] | IC50 [3] | IC50 [4] | IC50 (D(4) dopamine receptor) | IC50 [5] | Ki [5] | IC50 [6] | Ki [6] | IC50 [7] | IC50 (Mu-type opioid receptor) | IC50 (Acetylcholinesterase) | IC50 (Adenosine receptor A3) | IC50 (Cytochrome P450 2D6) | Ki (Cytochrome P450 2D6) | IC50 (Estrogen receptor beta)

COc1ccc([C@@H]2Sc3ccccc3N(CCN(C)C)C(=O)[C@@H]2OC(C)=O)cc1 [DILTIAZEM]
Not Active: IC50 [1] | IC50 [2] | IC50 [3] | IC50 [4] | IC50 (D(4) dopamine receptor) | IC50 [5] | Ki [5] | IC50 [6] | Ki [6] | IC50 [7] | IC50 (Mu-type opioid receptor) | IC50 (Acetylcholinesterase) | IC50 (Adenosine receptor A3) | IC50 (Cytochrome P450 2D6) | Ki (Cytochrome P450 2D6) | IC50 (Estrogen receptor beta)

NCC[C@H](O)C(=O)N[C@@H]1C[C@H](N)[C@@H](O[C@H]2O[C@H](CN)[C@@H](O)[C@H](O)[C@H]2O)[C@H](O)[C@H]1O[C@H]1O[C@H](CO)[C@@H](O)[C@H](N)[C@H]1O [AMIKACIN]
Not Active: IC50 [1] | IC50 [2] | IC50 [3] | IC50 [4] | IC50 (D(4) dopamine receptor) | IC50 [5] | Ki [5] | IC50 [6] | Ki [6] | IC50 [7] | IC50 (Mu-type opioid receptor) | IC50 (Acetylcholinesterase) | IC50 (Adenosine receptor A3) | IC50 (Cytochrome P450 2D6) | Ki (Cytochrome P450 2D6) | IC50 (Estrogen receptor beta)

C=C1C(=O)O[C@@H]2C3O[C@]3(C)CC/C=C(\C)CC[C@@H]12 (some centres undefined)
Not Active: IC50 [1] | IC50 [2] | IC50 [3] | IC50 [4] | IC50 (D(4) dopamine receptor) | IC50 [5] | Ki [5] | IC50 [6] | Ki [6] | IC50 [7] | IC50 (Mu-type opioid receptor) | IC50 (Acetylcholinesterase) | IC50 (Adenosine receptor A3) | IC50 (Cytochrome P450 2D6) | Ki (Cytochrome P450 2D6) | IC50 (Estrogen receptor beta)

COc1c(N2CCNC(C)C2)c(F)cc2c(=O)c(C(=O)O)cn(C3CC3)c12 (centres undefined) [GATIFLOXACIN]
Not Active: IC50 [1] | IC50 [2] | IC50 [3] | IC50 [4] | IC50 (D(4) dopamine receptor) | IC50 [5] | Ki [5] | IC50 [6] | Ki [6] | IC50 [7] | IC50 (Mu-type opioid receptor) | IC50 (Acetylcholinesterase) | IC50 (Adenosine receptor A3) | IC50 (Cytochrome P450 2D6) | Ki (Cytochrome P450 2D6) | IC50 (Estrogen receptor beta)

CC(/C=C1\SC(=S)N(CC(=O)O)C1=O)=C\c1ccccc1
Not Active: IC50 [1] | IC50 [2] | IC50 [3] | IC50 [4] | IC50 (D(4) dopamine receptor) | IC50 [5] | Ki [5] | IC50 [6] | Ki [6] | IC50 [7] | IC50 (Mu-type opioid receptor) | IC50 (Acetylcholinesterase) | IC50 (Adenosine receptor A3) | IC50 (Cytochrome P450 2D6) | Ki (Cytochrome P450 2D6) | IC50 (Estrogen receptor beta)

OCc1ccccc1 [BENZYL ALCOHOL]
Not Active: IC50 [1] | IC50 [2] | IC50 [3] | IC50 [4] | IC50 (D(4) dopamine receptor) | IC50 [5] | Ki [5] | IC50 [6] | Ki [6] | IC50 [7] | IC50 (Mu-type opioid receptor) | IC50 (Acetylcholinesterase) | IC50 (Adenosine receptor A3) | IC50 (Cytochrome P450 2D6) | Ki (Cytochrome P450 2D6) | IC50 (Estrogen receptor beta)

C=C1CC[C@H](O)C/C1=C/C=C1\CCC[C@]2(C)[C@@H]([C@H](C)/C=C/[C@H](C)C(C)C)CC[C@@H]12 [ERGOCALCIFEROL]
Not Active: IC50 [1] | IC50 [2] | IC50 [3] | IC50 [4] | IC50 (D(4) dopamine receptor) | IC50 [5] | Ki [5] | IC50 [6] | Ki [6] | IC50 [7] | IC50 (Mu-type opioid receptor) | IC50 (Acetylcholinesterase) | IC50 (Adenosine receptor A3) | IC50 (Cytochrome P450 2D6) | Ki (Cytochrome P450 2D6) | IC50 (Estrogen receptor beta)

Cc1ccccc1N1CCN(CCc2nnc3n2CCCC3)CC1 [DAPIPRAZOLE]
Not Active: IC50 [1] | IC50 [2] | IC50 [3] | IC50 [4] | IC50 (D(4) dopamine receptor) | IC50 [5] | Ki [5] | IC50 [6] | Ki [6] | IC50 [7] | IC50 (Mu-type opioid receptor) | IC50 (Acetylcholinesterase) | IC50 (Adenosine receptor A3) | IC50 (Cytochrome P450 2D6) | Ki (Cytochrome P450 2D6) | IC50 (Estrogen receptor beta)

Reference: ChEMBL document CHEMBL1909046, “DrugMatrix in vitro pharmacology data”
